Patent publication US10899758B2, “Inhibitors of the menin-MLL interaction” (Vitae Pharmaceuticals, LLC, priority 2016, dated 2021)
pEC50, pIC50: −log10 of the molar value.

Tests used:
[1] = molecular target: T1, menin/MLL binding (biotinylated wild-type or mutated menin and MLL-AF9 fusion protein) (Homo sapiens, UniProt O00255); test: Assay 1 (Binding Assay): AlphaLISA menin/MLL binding; conditions: 5 nM biotinylated menin, MLL-AF9-FLAG lysate
T1 construct: biotinylated (1) wild-type menin or (2) mutated menin (described in Nature (2012) Vol. 482, pp. 542-548); fused on or other part: Biotin attached chemically (Sulfo-NHS-Biotin); no fused second protein is printed for menin
T1 sequence (O00255 1-459 limits assumed): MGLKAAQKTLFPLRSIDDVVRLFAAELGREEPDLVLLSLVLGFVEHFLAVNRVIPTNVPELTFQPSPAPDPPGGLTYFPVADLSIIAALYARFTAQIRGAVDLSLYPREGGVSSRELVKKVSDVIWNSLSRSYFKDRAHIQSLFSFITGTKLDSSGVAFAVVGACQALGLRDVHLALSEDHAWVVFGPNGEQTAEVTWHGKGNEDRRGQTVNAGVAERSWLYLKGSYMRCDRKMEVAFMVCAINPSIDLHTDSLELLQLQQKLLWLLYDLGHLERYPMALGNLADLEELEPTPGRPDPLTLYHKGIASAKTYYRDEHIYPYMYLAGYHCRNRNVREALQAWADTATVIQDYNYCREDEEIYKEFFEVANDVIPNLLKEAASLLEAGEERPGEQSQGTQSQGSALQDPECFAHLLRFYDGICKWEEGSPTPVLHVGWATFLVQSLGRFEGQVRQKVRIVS
How it was run: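 Biotinylated E. coli-expressed menin (wild-type or mutant), 5 nM, incubated 30 min RT with compound and HEK293 lysate of MLL1-1,396–AF9-FLAG in pH 7.4 Tris buffer, 5% DMSO, 1 mM DTT. Anti-FLAG acceptor and streptavidin donor beads added, 60 min RT, AlphaLISA signal read. IC50 from four-parameter fit of % inhibition.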

[2] = tested on: human acute monocytic leukemia cell line MV-4-11; test: Assay 2 (Cell Proliferation Assay), ATP quantitation (CellTiter-Glo); assay type: cell-based; conditions: Homo sapiens, MV4-11, 72 h, MV-4-11 cells, read-out: Assay 2 (EC50, inhibition of cell proliferation)
How it was run: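 Cells (1.67×10^4/well, 10% FBS medium) incubated ±compound 72 h at 37 °C, 5% CO2; HL-60 served as toxicity control. ATP read by CellTiter-Glo luminescence; % inhibition scaled between DMSO and a potent menin inhibitor at ≥100×LD50.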

SMILES | pIC50 [1] | pEC50 [2]
CC(C)N(C)C(=O)c1cc(F)ccc1-n1cc([C@H]2CC[C@H](N3CCC[C@@H]3CO)CC2)c2ccncc21 [Example 100, 5-fluoro-2-(3-(trans-4-((R)-2-(hydroxymethyl)pyrrolidin-1-yl)cyclohexyl)-1H-pyrrolo[2,3-c]pyridin-1-yl)-N-isopropyl-N-methylbenzamide] | > 7.00 | 6.00 to 7.00
CC(C)N(C)C(=O)c1cc(F)ccc1-n1cc([C@H]2CC[C@H](N3CC[C@H](CO)C3)CC2)c2ccncc21 [Example 104, 5-fluoro-2-(3-(trans-4-((S)-3-(hydroxymethyl)pyrrolidin-1-yl)cyclohexyl)-1H-pyrrolo[2,3-c]pyridin-1-yl)-N-isopropyl-N-methylbenzamide] | > 7.00 | 6.00 to 7.00
CC(C)N(C)C(=O)c1cc(F)ccc1-n1cc([C@H]2CC[C@H](N3CCCCC3)CC2)c2ccncc21 [Example 106, 5-fluoro-N-isopropyl-N-methyl-2-(3-(trans-4-(piperidin-1-yl)cyclohexyl)-1H-pyrrolo[2,3-c]pyridin-1-yl)benzamide] | > 7.00 | 6.00 to 7.00
CC(C)N(C)C(=O)c1cc(F)ccc1-n1cc([C@H]2CC[C@@H](N3CCCC(O)C3)CC2)c2ccncc21 (stereo partly drawn) [Example 113, 5-fluoro-2-(3-(cis-4-(3-hydroxypiperidin-1-yl)cyclohexyl)-1H-pyrrolo[2,3-c]pyridin-1-yl)-N-isopropyl-N-methylbenzamide] | > 7.00 | 6.00 to 7.00
Cc1nnc(C2CC2)n1-c1cc(F)ccc1-n1cc(C2CCCN(Cc3ccc4[nH]c(=O)[nH]c4c3)C2)c2ccncc21 (centres unmarked) [Example 121, 5-((3-(1-(2-(3-cyclopropyl-5-methyl-4H-1,2,4-triazol-4-yl)-4-fluorophenyl)-1H-pyrrolo[2,3-c]pyridin-3-yl)piperidin-1-yl)methyl)-1H-benzo[d]imidazol-2(3H)-one] | > 7.00 | > 7.00
CC(C)N(C)C(=O)c1cc(F)ccc1-n1cc(C2CCN(Cc3ccc4[nH]c(=O)[nH]c4c3)C2)c2ccncc21 (centres unmarked) [Example 122, 5-fluoro-N-isopropyl-N-methyl-2-(3-(1-((2-oxo-2,3-dihydro-1H-benzo[d]imidazol-5-yl)methyl)pyrrolidin-3-yl)-1H-pyrrolo[2,3-c]pyridin-1-yl)benzamide] | > 7.00 | > 7.00
CC(C)N(C)C(=O)c1cc(F)ccc1-n1cc(C2CCN(Cc3ccc4c(c3)[nH]c(=O)n4CCO)C2)c2ccncc21 (centres unmarked) [Example 123, 5-fluoro-2-(3-(1-((1-(2-hydroxyethyl)-2-oxo-2,3-dihydro-1H-benzo[d]imidazol-5-yl)methyl)pyrrolidin-3-yl)-1H-pyrrolo[2,3-c]pyridin-1-yl)-N-isopropyl-N-methylbenzamide] | > 7.00 | > 7.00
CC(C)N(C)C(=O)c1cc(F)ccc1-n1cc(C2CCN(C[C@H]3CC[C@H](NS(C)(=O)=O)CC3)C2)c2ccncc21 (stereo partly drawn) [Example 124, N-methyl-5-fluoro-N-isopropyl-2-(3-(1-((trans-4-(methylsulfonamido)cyclohexyl)methyl)pyrrolidin-3-yl)-1H-pyrrolo[2,3-c]pyridin-1-yl)benzamide] | > 7.00 | 6.00 to 7.00
CCN(C(=O)c1cc(F)ccc1-n1cc(C2CCN(C[C@H]3CC[C@H](NS(C)(=O)=O)CC3)C2)c2ccncc21)C(C)C (stereo partly drawn) [Example 125, N-ethyl-5-fluoro-N-isopropyl-2-(3-(1-((trans-4-(methylsulfonamido)cyclohexyl)methyl)pyrrolidin-3-yl)-1H-pyrrolo[2,3-c]pyridin-1-yl)benzamide] | > 7.00 | > 7.00
CC(C)N(C(=O)c1cc(F)ccc1-n1cc(C2CCN(Cc3ccc4c(c3)[nH]c(=O)n4CCO)C2)c2ccncc21)C(C)C (centres unmarked) [Example 126, 5-fluoro-2-(3-(1-((1-(2-hydroxyethyl)-2-oxo-2,3-dihydro-1H-benzo[d]imidazol-5-yl)methyl)pyrrolidin-3-yl)-1H-pyrrolo[2,3-c]pyridin-1-yl)-N,N-diisopropylbenzamide] | > 7.00 | > 7.00
CC(C)N(C(=O)c1cc(F)ccc1-n1cc(C2CN(CC[C@H]3CC[C@H](NS(C)(=O)=O)CC3)C2)c2ccncc21)C(C)C [Example 137, 5-fluoro-N,N-diisopropyl-2-(3-(1-(2-((1r,4r)-4-(methylsulfonamido)cyclohexyl)ethyl)azetidin-3-yl)-1H-pyrrolo[2,3-c]pyridin-1-yl)benzamide] | > 7.00 | > 7.00
CC(C)N(C(=O)c1cc(F)ccc1-n1cc(C2CN(C[C@H]3CC[C@H](NS(C)(=O)=O)CC3)C2)c2ccncc21)C(C)C [Example 138, 5-fluoro-N,N-diisopropyl-2-(3-(1-(((1r,4r)-4-(methylsulfonamido)cyclohexyl)methyl)azetidin-3-yl)-1H-pyrrolo[2,3-c]pyridin-1-yl)benzamide] | > 7.00 | 6.00 to 7.00
CC(C)N(C(=O)c1cc(F)ccc1-n1cc(C2CCN(Cc3ccc4oc(=O)[nH]c4c3)C2)c2ccncc21)C(C)C (centres unmarked) [Example 140, 5-fluoro-N,N-diisopropyl-2-(3-(1-((2-oxo-2,3-dihydrobenzo[d]oxazol-5-yl)methyl)pyrrolidin-3-yl)-1H-pyrrolo[2,3-c]pyridin-1-yl)benzamide] | > 7.00 | > 7.00

Further lines, results first:

pIC50 [1] | pEC50 [2] | SMILES
> 7.00 | 6.00 to 7.00 | CC(C)N(C)C(=O)c1cc(F)ccc1-n1cc([C@H]2CC[C@@H](N3CCC(O)CC3)CC2)c2ccncc21 [Example 109, 5-fluoro-2-(3-(cis-4-(4-hydroxypiperidin-1-yl)cyclohexyl)-1H-pyrrolo[2,3-c]pyridin-1-yl)-N-isopropyl-N-methylbenzamide]
> 7.00 | 6.00 to 7.00 | CC(C)N(C)C(=O)c1cc(F)ccc1-n1cc([C@H]2CC[C@H](N3CCC(F)(F)CC3)CC2)c2ccncc21 [Example 110, 2-(3-(trans-4-(4,4-difluoropiperidin-1-yl)cyclohexyl)-1H-pyrrolo[2,3-c]pyridin-1-yl)-5-fluoro-N-isopropyl-N-methylbenzamide]
> 7.00 | ≤ 6.00 | CC(C)N(C)C(=O)c1cc(F)ccc1-n1cc([C@H]2CC[C@H](N3CCCC(O)C3)CC2)c2ccncc21 (stereo partly drawn) [Example 112, 5-fluoro-2-(3-(trans-4-(3-hydroxypiperidin-1-yl)cyclohexyl)-1H-pyrrolo[2,3-c]pyridin-1-yl)-N-isopropyl-N-methylbenzamide]
> 7.00 | ≤ 6.00 | CC(C)N(C)C(=O)c1cc(F)ccc1-n1cc([C@H]2CC[C@H](N3CCOCC3)CC2)c2ccncc21 [Example 117, 5-fluoro-N-isopropyl-N-methyl-2-(3-(trans-4-morpholinocyclohexyl)-1H-pyrrolo[2,3-c]pyridin-1-yl)benzamide]
> 7.00 | > 7.00 | CC(C)N(C(=O)c1cc(F)ccc1-n1cc(C2CCN(C[C@H]3CC[C@H](NS(C)(=O)=O)CC3)C2)c2ccncc21)C(C)C (stereo partly drawn) [Example 127, 5-fluoro-N,N-diisopropyl-2-(3-(1-((trans-4-(methylsulfonamido)cyclohexyl)methyl)pyrrolidin-3-yl)-1H-pyrrolo[2,3-c]pyridin-1-yl)benzamide]
> 7.00 | > 7.00 | CC(C)N(C(=O)c1cc(F)ccc1-n1cc(C2CN(CC[C@H]3CC[C@H](NC(=O)OC(C)(C)C)CC3)C2)c2ccncc21)C(C)C [Example 136, tert-butyl ((1r,4r)-4-(2-(3-(1-(2-(diisopropylcarbamoyl)-4-fluorophenyl)-1H-pyrrolo[2,3-c]pyridin-3-yl)azetidin-1-yl)ethyl)cyclohexyl)carbamate]
